Source: BigSolDB 2.1

On1nnc2ccccc21
Conditions	solubility (mole fraction)
in 1,4-dioxane, 288.15 K	0.0145
in 1,4-dioxane, 290.65 K	0.0158
in 1,4-dioxane, 293.15 K	0.0171
in 1,4-dioxane, 295.65 K	0.0187
in 1,4-dioxane, 298.15 K	0.0202
in 1,4-dioxane, 300.65 K	0.0225
in 1,4-dioxane, 303.15 K	0.0247
in 1,4-dioxane, 305.65 K	0.0272
in 1,4-dioxane, 308.15 K	0.0298
in 1,4-dioxane, 310.65 K	0.0331
in 1,4-dioxane, 313.15 K	0.0364
in 2-butanone, 278.15 K	0.0157
in 2-butanone, 280.65 K	0.0169
in 2-butanone, 283.15 K	0.0181
in 2-butanone, 285.65 K	0.0195
in 2-butanone, 288.15 K	0.021
in 2-butanone, 290.65 K	0.0225
in 2-butanone, 293.15 K	0.0241
in 2-butanone, 295.65 K	0.0259
in 2-butanone, 298.15 K	0.0278
in 2-butanone, 300.65 K	0.0299
in 2-butanone, 303.15 K	0.0323
in 2-butanone, 305.65 K	0.0347
in 2-butanone, 308.15 K	0.0372
in 2-butanone, 310.65 K	0.0402
in 2-butanone, 313.15 K	0.0433
in DMF, 278.15 K	0.0412
in DMF, 280.65 K	0.0464
in DMF, 283.15 K	0.0522
in DMF, 285.65 K	0.0587
in DMF, 288.15 K	0.0646
in DMF, 290.65 K	0.072
in DMF, 293.15 K	0.0794
in DMF, 295.65 K	0.0884
in DMF, 298.15 K	0.098
in DMF, 300.65 K	0.109
in DMF, 303.15 K	0.121
in DMF, 305.65 K	0.134
in DMF, 308.15 K	0.148
in DMF, 310.65 K	0.164
in DMF, 313.15 K	0.18
in DMSO, 278.15 K	0.0337
in DMSO, 280.65 K	0.0377
in DMSO, 283.15 K	0.0421
in DMSO, 285.65 K	0.0475
in DMSO, 288.15 K	0.0529
in DMSO, 290.65 K	0.0592
in DMSO, 293.15 K	0.0664
in DMSO, 295.65 K	0.0738
in DMSO, 298.15 K	0.082
in DMSO, 300.65 K	0.0921
in DMSO, 303.15 K	0.103
in DMSO, 305.65 K	0.114
in DMSO, 308.15 K	0.128
in DMSO, 310.65 K	0.142
in DMSO, 313.15 K	0.157
in acetone, 278.15 K	0.0139
in acetone, 280.65 K	0.0149
in acetone, 283.15 K	0.016
in acetone, 285.65 K	0.0171
in acetone, 288.15 K	0.0184
in acetone, 290.65 K	0.0198
in acetone, 293.15 K	0.0214
in acetone, 295.65 K	0.0229
in acetone, 298.15 K	0.0246
in acetone, 300.65 K	0.0266
in acetone, 303.15 K	0.0285
in acetone, 305.65 K	0.0306
in acetone, 308.15 K	0.033
in acetone, 310.65 K	0.0355
in acetone, 313.15 K	0.0383
in acetonitrile, 278.15 K	0.00229
in acetonitrile, 280.65 K	0.00249
in acetonitrile, 283.15 K	0.00271
in acetonitrile, 285.65 K	0.00295
in acetonitrile, 288.15 K	0.00322
in acetonitrile, 290.65 K	0.00348
in acetonitrile, 293.15 K	0.0038
in acetonitrile, 295.65 K	0.00414
in acetonitrile, 298.15 K	0.00449
in acetonitrile, 300.65 K	0.00488
in acetonitrile, 303.15 K	0.00531
in acetonitrile, 305.65 K	0.0058
in acetonitrile, 308.15 K	0.00631
in acetonitrile, 310.65 K	0.00685
in acetonitrile, 313.15 K	0.00749
in ethanol, 278.15 K	0.0318
in ethanol, 280.65 K	0.0331
in ethanol, 283.15 K	0.0355
in ethanol, 285.65 K	0.0377
in ethanol, 288.15 K	0.0406
in ethanol, 290.65 K	0.0433
in ethanol, 293.15 K	0.0462
in ethanol, 295.65 K	0.0493
in ethanol, 298.15 K	0.0528
in ethanol, 300.65 K	0.0566
in ethanol, 303.15 K	0.0605
in ethanol, 305.65 K	0.0651
in ethanol, 308.15 K	0.0697
in ethanol, 310.65 K	0.0746
in ethanol, 313.15 K	0.0802
in ethyl acetate, 278.15 K	0.00505
in ethyl acetate, 280.65 K	0.00555
in ethyl acetate, 283.15 K	0.00606
in ethyl acetate, 285.65 K	0.00676
in ethyl acetate, 288.15 K	0.00745
in ethyl acetate, 290.65 K	0.00821
in ethyl acetate, 293.15 K	0.00908
in ethyl acetate, 295.65 K	0.0101
in ethyl acetate, 298.15 K	0.0115
in ethyl acetate, 300.65 K	0.013
in ethyl acetate, 303.15 K	0.0149
in ethyl acetate, 305.65 K	0.0169
in ethyl acetate, 308.15 K	0.0193
in ethyl acetate, 310.65 K	0.0219
in ethyl acetate, 313.15 K	0.0247
in isooctanol, 278.15 K	0.0108
in isooctanol, 280.65 K	0.0112
in isooctanol, 283.15 K	0.0115
in isooctanol, 285.65 K	0.0119
in isooctanol, 288.15 K	0.0123
in isooctanol, 290.65 K	0.0127
in isooctanol, 293.15 K	0.0132
in isooctanol, 295.65 K	0.0137
in isooctanol, 298.15 K	0.0143
in isooctanol, 300.65 K	0.0149
in isooctanol, 303.15 K	0.0154
in isooctanol, 305.65 K	0.0161
in isooctanol, 308.15 K	0.0168
in isooctanol, 310.65 K	0.0175
in isooctanol, 313.15 K	0.0182
in isopentanol, 278.15 K	0.0109
in isopentanol, 280.65 K	0.0114
in isopentanol, 283.15 K	0.0118
in isopentanol, 285.65 K	0.0123
in isopentanol, 288.15 K	0.0127
in isopentanol, 290.65 K	0.0132
in isopentanol, 293.15 K	0.0137
in isopentanol, 295.65 K	0.0143
in isopentanol, 298.15 K	0.0148
in isopentanol, 300.65 K	0.0155
in isopentanol, 303.15 K	0.0161
in isopentanol, 305.65 K	0.0167
in isopentanol, 308.15 K	0.0174
in isopentanol, 310.65 K	0.0181
in isopentanol, 313.15 K	0.0188
in isopropanol, 278.15 K	0.0248
in isopropanol, 280.65 K	0.0261
in isopropanol, 283.15 K	0.0281
in isopropanol, 285.65 K	0.0301
in isopropanol, 288.15 K	0.032
in isopropanol, 290.65 K	0.0341
in isopropanol, 293.15 K	0.0367
in isopropanol, 295.65 K	0.0392
in isopropanol, 298.15 K	0.0421
in isopropanol, 300.65 K	0.0451
in isopropanol, 303.15 K	0.0481
in isopropanol, 305.65 K	0.0515
in isopropanol, 308.15 K	0.0553
in isopropanol, 310.65 K	0.0592
in isopropanol, 313.15 K	0.0637
in methanol, 278.15 K	0.0223
in methanol, 280.65 K	0.0239
in methanol, 283.15 K	0.0254
in methanol, 285.65 K	0.0274
in methanol, 288.15 K	0.0294
in methanol, 290.65 K	0.0314
in methanol, 293.15 K	0.0336
in methanol, 295.65 K	0.0358
in methanol, 298.15 K	0.0386
in methanol, 300.65 K	0.0415
in methanol, 303.15 K	0.0445
in methanol, 305.65 K	0.048
in methanol, 308.15 K	0.0522
in methanol, 310.65 K	0.0562
in methanol, 313.15 K	0.0609
in n-heptanol, 278.15 K	0.0119
in n-heptanol, 280.65 K	0.0123
in n-heptanol, 283.15 K	0.0129
in n-heptanol, 285.65 K	0.0134
in n-heptanol, 288.15 K	0.014
in n-heptanol, 290.65 K	0.0146
in n-heptanol, 293.15 K	0.0152
in n-heptanol, 295.65 K	0.0158
in n-heptanol, 298.15 K	0.0165
in n-heptanol, 300.65 K	0.0173
in n-heptanol, 303.15 K	0.0182
in n-heptanol, 305.65 K	0.019
in n-heptanol, 308.15 K	0.02
in n-heptanol, 310.65 K	0.021
in n-heptanol, 313.15 K	0.022
in n-hexanol, 278.15 K	0.0114
in n-hexanol, 280.65 K	0.0118
in n-hexanol, 283.15 K	0.0123
in n-hexanol, 285.65 K	0.0129
in n-hexanol, 288.15 K	0.0134
in n-hexanol, 290.65 K	0.0139
in n-hexanol, 293.15 K	0.0145
in n-hexanol, 295.65 K	0.0152
in n-hexanol, 298.15 K	0.0159
in n-hexanol, 300.65 K	0.0166
in n-hexanol, 303.15 K	0.0174
in n-hexanol, 305.65 K	0.0182
in n-hexanol, 308.15 K	0.019
in n-hexanol, 310.65 K	0.0198
in n-hexanol, 313.15 K	0.0206
in n-propanol, 278.15 K	0.0297
in n-propanol, 280.65 K	0.0319
in n-propanol, 283.15 K	0.034
in n-propanol, 285.65 K	0.0362
in n-propanol, 288.15 K	0.0387
in n-propanol, 290.65 K	0.0412
in n-propanol, 293.15 K	0.044
in n-propanol, 295.65 K	0.0472
in n-propanol, 298.15 K	0.0502
in n-propanol, 300.65 K	0.0535
in n-propanol, 303.15 K	0.0573
in n-propanol, 305.65 K	0.0612
in n-propanol, 308.15 K	0.0655
in n-propanol, 310.65 K	0.0698
in n-propanol, 313.15 K	0.0749
in toluene, 278.15 K	1.1e-05
in toluene, 280.65 K	1.2e-05
in toluene, 283.15 K	1.5e-05
in toluene, 285.65 K	1.61e-05
in toluene, 288.15 K	1.99e-05
in toluene, 290.65 K	2.17e-05
in toluene, 293.15 K	2.49e-05
in toluene, 295.65 K	2.85e-05
in toluene, 298.15 K	3.26e-05
in toluene, 300.65 K	3.61e-05
in toluene, 303.15 K	4.28e-05
in toluene, 305.65 K	4.87e-05
in toluene, 308.15 K	5.56e-05
in toluene, 310.65 K	6.2e-05
in toluene, 313.15 K	6.92e-05
